Measurements published in US20260008801A1, “BIO-BASED SURFACTANTS DERIVED FROM CARBOHYDRATES” (COÖPERATIE KONINKLIJKE COSUN U.A., priority 2022, published 2026).
Each block holds one compound with its values, some of them ahead of it.

Assays:
[1] = Foaming power and stability, Ultra-Turrax, 0.4% aq. surfactant; type: physicochemical; conditions: for Foamability (mL) after (min) 1 / Foamability (mL) after (min) 5 / Foamability (mL) after (min) 10: Table E5.2; for Foamability (mL) after (min) 1: foam volume after 1 min; for Foamability (mL) after (min) 5: foam volume after 5 min; for Foamability (mL) after (min) 10: foam volume after 10 min; for Foamability 1 min / Foamability 5 min / Foamability 30 min: Table E8; for Foamability 1 min: after 1 min; for Foamability 5 min: after 5 min; for Foamability 30 min: after 30 min
Protocol: Foaming power was also tested at room temperature with 5 mL of 0.4% aq. surfactant (20 mg) solution in a 50 mL measuring cylinder. After performing the Ultra-Turrax (a registered trademark for a high-performance dispersing instrument) for 20 seconds (8000 rpm), the initial height of the foam was measured for foam height. (volume in mL). Every time step of, 1, 3, 5, 10, 30, 60 minutes was noted. In addition, after 24 hours the stability was checked. Particularly, foaming power and stability of the surfactants were performed using an IKA Ultra-Turrax T25 with an 18 G dispersing element. At room temperature, an aqueous solution of 5 mL 0.4% surfactant in a 50 mL measuring cylinder (2.20 cm diameter) was mixed with the Ultra-Turrax for 20 seconds at 8000 rpm. The foam height (volume in mL) was denoted for 0, 1, 3, 5, 10, 30, 60 min and 24 hours. In addition, after 24 hours the stability was checked.

[2] = Solubility in water (excess of compound in 4 ml demi water); type: physicochemical; conditions: for Solubility: Table E5.2, water; for Solubility (%): Table E8
Protocol: Solubility is preferably solubility in aqueous solution, more preferably solubility in water, most preferably solubility in demineralised water. A skilled person knows how to assess such solubility.
Solubility in water was determined by preparing mixtures of an excess of compound dispersed in 4 ml demi water using a vortex at maximum speed for 1 min. […] 1 ml of the mixture was concentrated in vacuo to yield a solid. The mass of the solid was determined in mg to calculate the solubility in percentage by dividing by ten.

[3] = Foaming abilities, 1% compound solutions shaken by hand; type: physicochemical; design: key to FOAM: −: no foam formation; +: low foam formation; ++: moderate foam formation; +++: strong foam formation
Protocol: Foaming abilities were evaluated at room temperature by shaking 1% compound solutions (2 ml) of pH 3, 7, and 12 by hand for 10 s. The pH of each solution was assessed with a pH meter at room temperature. […] The foam heights at the initial time were compared to one another after which the foaming abilities were classified according to no foam formation (−), low foam formation (+), moderate foam formation (++), and strong foam formation (+++).

[4] = Surface tension measurements, Wilhelmy plate (surface tension, CMC); type: physicochemical
Protocol: Surface tension measurements were performed with a Biolin Scientific Sigma701 automatic tension meter equipped with a Wilhelmy plate made of platinum (±0.5 mN/m). […] The number of experimental points is related to the compound's/surfactant's solubility and available quantity. All compound/surfactant solutions were allowed to stand 12 h before being measured. The platinum plate was thoroughly cleaned with demi water and flame-dried before each measurement. The CMC of each compound/surfactant was determined at the minimum of a breakpoint of a conventional plot of surface tension versus compound/surfactant concentration. DCMC was obtained by acquiring the surface tension at the CMC. The pC20 value was determined by taking the minus log of the concentration compound/surfactant at a surface tension of 52 mN/m.

Zein = Zein solubilisation (skin irritation potential); conditions: SDS set as 100
Protocol: Zein solubilisation was measured to determine the irritation of the surfactants. Zein is a simple protein found in corn. It is a very simple mimic of skin protein, the more solubilised by your material the harsher the potential to irritate and dry the skin. This method is a quick screen and provides indicative data. The procedure is 1) Weight 2-2.5 ml Eppendorf's on a 4 dp balance. 2) Weight out as accurately as possible 70 mg of Zein. 3) Add to the Eppendorf and reweigh. 4) Make your surfactant dilutions. 5) Add 1 ml of the surfactant dilution to the Eppendorf. 6) Place this on a rotary mixer for 20 mins at 20 rpm at RT. 7) Remove and centrifuge for 4 mins at highest speed available on a micro centrifuge 8) Discard the supernatant making sure as much of it possible is removed. 9) Repeat with water, centrifuge and discard supernatant. 10) With the Eppendorf lid open, place at 50° C. overnight to dry (48 hours required). 11) Re-weigh the next day. 12) Calculate the amount of Zein solubilised. The obtained data allows comparison of surfactants and their harshness to skin. Decisions for in vivo testing can be based on good Zein results.
The skin irritation potential of the surfactants was investigated using zein solubilisation, which is a commonly known assay. Zein is a very simple mimic of skin protein. The more zein is solubilized by the surfactant the harsher the potential to irritate and dry the human skin. […] The surfactants were measured at different pH values, a pH of 4-5, 7 and at their original pH as is.

[5] = Solubility in media other than water (methanol, ethyl acetate, oils, 3:1 EtOH/H2O); type: physicochemical; conditions: for Solubility in 3:1 EtOH/H2O: 3:1 ethanol water ratio; for SOLUBILITY (H2O): medium named in the cell instead of water: Table E1, cell names the medium in which the compound is soluble
[6] = Table E3, N-alkylated compounds
[7] = Table E4, room temperature, pH 7
[8] = Table E6, N-oxide compounds, in Salt form

Foamability (mL) after (min) 1 [1]: 4 mL | Foamability (mL) after (min) 5 [1]: 4 mL | Foamability (mL) after (min) 10 [1]: 3 mL | Foamability 1 min [1]: 4 mL | Foamability 5 min [1]: 4 mL | Foamability 30 min [1]: 3 mL | Solubility [2]: 28% | SOLUBILITY (H2O) ([2]; Table E7, commercially available surfactants): Yes | Solubility (%) [2]: 28% | FOAM ([3]; Table E7): ++ | concentration at which the surface tension is reached [4]: 0.02% | CMC (%) ([4]; Table E5.2): 0.2% | Surface tension (nM/m) ([4]; Table E5.2): 33.8 mN/m | CMC (%) ([4]; Table E7): 0.2% | SURFACE TENSION ([4]; Table E7): 36.5 mN/m | CMC (%) ([4]; Table E8): 0.2% | Surface tension (nM/m) ([4]; Table E8): 33.8 mN/m
Compound: sodium laureth sulfate [SLES, reference compound]
zein score / skin irritation potential value (Zein; pH 7): 49 | skin irritation potential value (zein) (Zein; pH11): > 49

Foamability (mL) after (min) 1 [1]: 0.2 mL | Foamability (mL) after (min) 5 [1]: 0 mL | Foamability (mL) after (min) 10 [1]: 0 mL | SOLUBILITY (H2O) ([2]; Table E5): 40% | Solubility [2]: 40% | FOAM ([3]; Table E5, PH > 7): ++ | CMC (%) ([4]; Table E5): 2% | SURFACE TENSION ([4]; Table E5, room temperature, pH 7): 60.6 mN/m | Surface tension (nM/m) ([4]; Table E5.2): 42.1 mN/m
Compound: CCCCCCN(C)C[C@H](O)[C@@H](O)[C@@H](O)[C@H](O)C(=O)O [Compound 30, N-methyl-N-hexyl-D-galacturonic acid amine]

Foamability (mL) after (min) 1 [1]: 5 mL | Foamability (mL) after (min) 5 [1]: 5 mL | Foamability (mL) after (min) 10 [1]: 4 mL | SOLUBILITY (H2O) ([2]; Table E4): 0.06% | Solubility [2]: 0.06% | FOAM ([3]; Table E4, pH > 7): ++ | CMC (%) ([4]; Table E4): 0.1% | SURFACE TENSION [4, 7]: 26.2 mN/m | CMC (%) ([4]; Table E5.2): 0.1% | Surface tension (nM/m) ([4]; Table E5.2): 26.2 mN/m
Compound: CCCCCCCCCCCCN(C)C[C@H](O)[C@@H](O)[C@@H](O)CO [Compound 25, N-methyl-N-dodecyl-L-arabinamine]

SOLUBILITY (H2O) ([2]; Table E5): 14% | Solubility [2]: 14% | FOAM ([3]; Table E5, pH not given): − | Solubility in 3:1 EtOH/H2O [5]: (Poorly in 3:1
Compound: CCCCCCNC[C@H](O)[C@@H](O)[C@@H](O)[C@H](O)C(=O)O [Compound 37, N-hexyl-D-galacturonic acid amine, reference compound]

Foamability 1 min [1]: 0.5 mL | Foamability 5 min [1]: 0 mL | Foamability 30 min [1]: 0 mL | SOLUBILITY (H2O) [2, 8]: 17% | Solubility (%) [2]: 17% | FOAM ([3]; Table E6, in Salt form): − | CMC (%) ([4]; Table E6, in Salt form): 2.58% | SURFACE TENSION ([4]; Table E6, in Salt form): 37.727 mN/m | CMC (%) ([4]; Table E8): 2.60% | Surface tension (nM/m) ([4]; Table E8): 42.90 mN/m
Compound: CCCCCC[N+](C)([O-])C[C@H](O)[C@@H](O)[C@@H](O)[C@H](O)C(=O)O (stereo partly drawn) [Compound 41, N-methyl-N-hexyl-D-galacturonic acid amine oxide]

Foamability 1 min [1]: 6 mL | Foamability 5 min [1]: 6 mL | Foamability 30 min [1]: 5 mL | SOLUBILITY (H2O) [2, 8]: 8% | Solubility (%) [2]: 8% | FOAM ([3]; Table E6, in Salt form): +++ | CMC (%) ([4]; Table E6, in Salt form): 0.08% | SURFACE TENSION ([4]; Table E6, in Salt form): 25.17 mN/m | CMC (%) ([4]; Table E8): 0.08% | Surface tension (nM/m) ([4]; Table E8): 25.17 mN/m
Compound: CCCCCCCCCC[N+](C)([O-])C[C@H](O)[C@@H](O)[C@@H](O)[C@H](O)C(=O)O (stereo partly drawn) [Compound 42b]

Foamability 1 min [1]: 5 mL | Foamability 5 min [1]: 4 mL | Foamability 30 min [1]: 4 mL | SOLUBILITY (H2O) [2, 8]: 7% | Solubility (%) [2]: 7% | FOAM ([3]; Table E6, in Salt form): +++ | CMC (%) ([4]; Table E6, in Salt form): 0.058% | SURFACE TENSION ([4]; Table E6, in Salt form): 25.551 mN/m | CMC (%) ([4]; Table E8): 0.058% | Surface tension (nM/m) ([4]; Table E8): 25.55 mN/m
Compound: CCCCCCCCCCCC[N+](C)([O-])C[C@H](O)[C@@H](O)[C@@H](O)[C@H](O)C(=O)O (stereo partly drawn) [Compound 43, N-methyl-N-dodecyl-D-galacturonic acid amine oxide]

Foamability (mL) after (min) 1 [1]: 2 mL | Foamability (mL) after (min) 5 [1]: 0.2 mL | Foamability (mL) after (min) 10 [1]: 0 mL | solubility in H2O [2]: 30% | SOLUBILITY (H2O) ([2]; Table E4): 30% | Solubility [2]: 30% | FOAM ([3]; Table E4, pH > 7): + | CMC (%) ([4]; Table E4): 2% | SURFACE TENSION [4, 7]: 31.4 mN/m | CMC (%) ([4]; Table E5.2): 2% | Surface tension (nM/m) ([4]; Table E5.2): 31.4 mN/m
Compound: CCCCCCN(C)C[C@H](O)[C@@H](O)[C@@H](O)CO [Compound 23, N-methyl-N-hexyl-L-arabinamine]

Second part, the compound before the results:

Compound: CCCCCCCCCCCCN(C)C(=O)[C@H](O)[C@@H](O)[C@@H](O)[C@H](O)C(=O)O [Compound 22]
solubility in water, in words [2]: well soluble | SOLUBILITY (H2O) [2, 6]: Soluble | foaming behaviour / foam creation, in words [3]: good foaming behaviour | FOAM ([3]; Table E3): ++ | solubility in methanol, in words [5]: well soluble

Compound: CCCCCCCCN(C)C(=O)[C@H](O)[C@@H](O)[C@@H](O)[C@H](O)C(=O)O [Compound 20]
solubility in water, in words [2]: well soluble | SOLUBILITY (H2O) [2, 6]: Soluble | foaming behaviour / foam creation, in words [3]: good foaming behaviour | FOAM ([3]; Table E3): ++ | solubility in methanol, in words [5]: well soluble

Compound: CCCCCCN(C)C(=O)[C@H](O)[C@@H](O)[C@@H](O)CO [Compound 18, N-methyl-N-hexyl-L-arabinonamide]
solubility in water, in words [2]: well soluble | SOLUBILITY (H2O) [2, 6]: Soluble | FOAM ([3]; Table E3): − | solubility in methanol, in words [5]: well soluble

Compound: CCCCCCCCCCCCN(C)C(=O)[C@H](O)[C@@H](O)[C@@H](O)CO [Compound 19, N-methyl-N-dodecyl-L-arabinonamide]
solubility in water, in words [2]: well soluble | SOLUBILITY (H2O) [2, 6]: Soluble | FOAM ([3]; Table E3): ++ | solubility in ethyl acetate, in words ([5]; ethyl acetate): well soluble | solubility in methanol, in words [5]: well soluble

Compound: CCCCCCCCCCNC(=O)[C@H](O)[C@@H](O)[C@@H](O)CO [Compound 04, 1-(N-Decyl)-L-arabinonamide]
solubility in water, in words [2]: poorly soluble | FOAM ([3]; Table E1): − | SOLUBILITY (H2O): medium named in the cell instead of water [5]: In oil | solubility in diverse oils, in words [5]: soluble

Compound: CCCCCCCCN(C)C(=O)[C@H](O)[C@@H](O)[C@@H](O)CO [Compound 17, N-methyl-N-octyl-L-arabinonamide]
solubility in water, in words [2]: well soluble | SOLUBILITY (H2O) [2, 6]: Soluble | foaming behaviour / foam creation, in words [3]: good foaming behaviour | FOAM ([3]; Table E3): ++ | solubility in methanol, in words [5]: well soluble

Compound: CCCCCCCCNC(=O)[C@H](O)[C@@H](O)[C@@H](O)CO [Compound 03, 1-(N-octyl)-L-arabinonamide]
solubility in water, in words [2]: poorly soluble | FOAM ([3]; Table E1): − | Solubility in 3:1 EtOH/H2O [5]: soluble | SOLUBILITY (H2O): medium named in the cell instead of water ([5]; in 3:1 ethanol/water): 3:1 EtOH/H2O & | SOLUBILITY (H2O): medium named in the cell instead of water ([5]; in oil): in oil | solubility in diverse oils, in words [5]: soluble
